Data set [1] in a line: PK study in hamsters (IV and PO). Conditions: male, Golden Syrian, plasma, hamster. Type of data set: in vivo. How it is done:
To assess the effect of FAP inhibition by an exemplary compound over the cleavage of endogenously produced FGF21, in vivo PK/PD studies were conducted in male Golden Syrian hamsters following single intravenous and oral administration of an exemplary compound. Compound 13 (an exemplary compound) was formulated in dimethyl sulfoxide (DMSO)/Solutol® HS 15 (BASF, Germany)/phosphate buffered saline (PBS, Sigma, USA) (5/5/90, v/v/v) at 0.2 mg/mL for IV injection and polyethylene glycol (PEG) 200 (Sigma, USA)/water for injection (WFI; Tai-Yu, Taiwan) (50/50, v/v) at 1 mg/mL for PO administration. The dosing volumes were 5 mL/kg for IV and 10 mL/kg for PO. Hamsters from Group 1 received an intravenous bolus via jugular vein of 1 mg/kg of compound 13 (an exemplary compound). On the other hand, hamsters from Group 2 received an intragastric bolus of 10 mg/kg of compound 13 (an exemplary compound) using feeding needles. Plasma samples were collected at 5, 10, 15, 30, 60, 120, 240, 360, 480 and 1440 minutes post-dose in both IV and PO groups. Hamsters from group 3 were not dosed and were used to collect samples of zero time point and baseline levels of FAP activity and endogenous FGF21. […]

The target of data set [2] is T1, plasma FAP activity (Rattus norvegicus, UniProt A0A9K3Y732).
T1 construct: from tissue; host or cells: rat plasma after oral dosing
T1 sequence (A0A9K3Y732 1-761): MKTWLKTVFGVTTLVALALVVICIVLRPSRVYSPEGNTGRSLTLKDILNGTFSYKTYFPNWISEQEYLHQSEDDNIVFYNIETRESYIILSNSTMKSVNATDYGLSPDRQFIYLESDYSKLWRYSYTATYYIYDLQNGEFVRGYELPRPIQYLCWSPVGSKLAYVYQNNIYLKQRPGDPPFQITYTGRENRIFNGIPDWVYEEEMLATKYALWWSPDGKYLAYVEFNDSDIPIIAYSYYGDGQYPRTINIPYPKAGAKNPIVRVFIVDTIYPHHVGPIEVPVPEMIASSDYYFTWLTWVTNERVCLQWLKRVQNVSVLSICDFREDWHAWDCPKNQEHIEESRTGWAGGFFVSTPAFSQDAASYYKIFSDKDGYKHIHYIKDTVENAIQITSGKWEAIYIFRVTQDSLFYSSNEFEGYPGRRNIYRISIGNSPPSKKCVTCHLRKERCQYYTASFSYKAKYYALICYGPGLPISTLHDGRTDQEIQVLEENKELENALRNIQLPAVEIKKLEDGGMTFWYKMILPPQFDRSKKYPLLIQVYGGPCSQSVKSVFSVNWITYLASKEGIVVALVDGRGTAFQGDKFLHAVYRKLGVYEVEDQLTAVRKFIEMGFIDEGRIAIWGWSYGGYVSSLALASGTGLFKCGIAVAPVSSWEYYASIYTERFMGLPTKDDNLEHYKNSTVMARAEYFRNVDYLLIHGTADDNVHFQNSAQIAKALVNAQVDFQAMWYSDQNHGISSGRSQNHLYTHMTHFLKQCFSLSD
Nature of the data set: rhFGF21 administration in conjunction with FAP inhibition in vivo. On the set-up: species or system Sprague Dawley rats. The source says: To determine if exemplary compounds of the invention can contribute to extend the half-life of hFGF21 in vivo, rats were orally dosed with vehicle or compound 13 (an exemplary compound) followed by sub-therapeutic dose of rhFGF21.
Male Sprague Dawley rats, approximately 7-8 weeks old (˜250 g), were obtained from the vivarium of Universidad Católica de Chile (Santiago, Chile). Animals were acclimated for a minimum period of 4 days upon arrival at the testing facility. At the day of study, two rats were anesthetized using sevoflurane and subjected to surgical implantation of catheters in carotid artery and jugular vein. Catheter plugs were fixed to the external ends of the catheters and kept patent using an anti-coagulant heparinized saline solution containing 25 U/mL Heparin (Fresenius Kabi, Laboratorio Sanderson) in 0.9% NaCl Apiroflex (Fresenius Kabi, Laboratorio Sanderson). After surgical recovery, rats were weighed and identified by marking the tail with numbers using a non-toxic permanent marker for designation of treatments described in Table 9.
Compound 13 (an exemplary compound) was formulated at 5 mg/ml in vehicle PEG200/dH2O (50/50, v/v) for oral administration and rhFGF21 was formulated in 0.9% NaCl Apiroflex at 100 μg/mL. […]

For `N#C[C@@H]1CC(F)(F)CN1C(=O)CNC(=O)c1ccncc1-c1ccccc1` [Compound 13, (S)—N-(2-(2-cyano-4,4-difluoropyrrolidin-1-yl)-2-oxoethyl)-3-phenylisonicotinamide], the AUC(0-t) in data set [1] (intravenous 1 mg/kg) is 255 ng·h/mL; in data set [1] (oral 10 mg/kg), 350 ng·h/mL. The “amount of rhFGF21 detected through time in the plasma” value in data set [2] (50 mg/kg PO pre-treatment, then rhFGF21 90 μg/Kg IV) is “increased”. Also, the “plasma FAP activity” value in data set [2] (oral single dose of 50 mg/kg) was “potently suppressed”.

Values taken from US11780821B2, “Inhibitors of fibroblast activation protein” (Praxis Biotech LLC, priority 2017, dated 2023).
